Results as given in patent publication US7431936B2, “Proteins involved in cytoadhesion of plasmodium falciparum ring-stage-infected erythrocytes, antibodies which bind to the proteins, and methods for detecting infection, stage of infection and vaccines for protecting against infection” (Institut Pasteur, priority 2000, dated 2008).

How the values were obtained:
[1] = test system: ring-stage PA^CSA IE cytoadhesion to SBEC ID; experiment: Protease sensitivity of ring-stage IE cytoadhesion; type: cell-based, P. falciparum; details: protease concentration of 100 μg/ml (FIG. 3C)
Experimental: The protease sensitivity of ring-stage IE cytoadhesion was analyzed using 5 μl of packed PA^CSA IE (8 hours post-invasion). IE were incubated with 10 or 100 μg/ml of trypsin TPCK (Signa) or 100 µg/ml of -chymotrypsin TLCK (Sigma) for 30 minutes at 37° C. The digestion was topped by adding culture medium containing 10% human plasma. The cells were then washed in cytoadhesion medium and allowed to cytoadhere to SBEC ID, as previously described, using untreated PA^CSA as a control.

[2] = test system: ring-stage IE^CSA cytoadhesion to SBEC 1D; experiment: Cytoadhesion inhibition assay of IE^CSA on SBEC 1D; type: cell-based, P. falciparum; details: for inhibitory effect on ring-stage IE binding to SBEC 1D: ring-stage PA^CSA IE 8 hours post-invasion, glycosaminoglycan present or target cells enzyme-treated (FIG. 2B), thrombospondin data not shown; for sensitivity of ring-stage IE^CSA cytoadhesion to inhibitor: 0.1 mg.ml of CSA, or prior treating of target cells with 1 U/ml Case ABC, until the 16th hour after invasion (FIG. 2A); for time after invasion at which inhibition was maximal: CSA and Case ABC tested every 4 hours throughout the cycle (FIG. 2A)
Experimental: Gelatin-enriched preparations of mature-stage IE were resuspended at a concentration of 5×10^6 IE/ml in cytoadhesion medium at pH 6.8. Cytoadhesion microassays were then performed on 12-well IFA slides (Institut Pasteur, Paris) as previously desribed^15.
Ring-stage cytoadhesion assays were performed with endothelial cells as described above and with placental cryosections as previously described^11, with 1 to 10% parasitaemia (a 1×10^7 IE/ml suspension).
For cytoadhesion inhibition assays, the IE were incubated with SBEC in the presence of 2.5 μg/ml thrombospondin, 0.1 mg/ml soluble CSA, dermatan sulphate (CSB), chondroitin-6-sulphate (CSC), keratin sulphate (Ker), byaluronic acid (HA), heparin (Hep) (Fluka, France), or with SBEC previously incubated for 1 hour at 37° C. with 1 U/ml Case (Fluka, France), 1 to 10 U/ml heparinase III (Hepase III (Sigma, France) or 5 μg/ml anti-CD36 FA6-152 Mab (gift from Dr. Edelman). Inhibition assays were also carried out in the presence of sera obtained from Senegalese and Cameroonian patients living in areas of endemic malaria. The sera were obtained from primigravida and multigravida women, an adult and a child, absorbed onto O^+ human blood and SBEC ID, and tested at a dilution of 1/20. The results were compared to those for cytoadhesion in the presence of a 1/20 dilution of a pool of control sera from volunteers who had never contacted malaria.

## -chymotrypsin
[1]
  inhibition of ring-stage IE adhesion after protease treatment of IE: substantially inhibited

## Hyaluronic acid
[2]
  inhibitory effect on ring-stage IE binding to SBEC 1D: no activity

## hyaluronate lyase
[2]
  inhibitory effect on ring-stage IE binding to SBEC 1D: low level of inhibitory activity

## heparin
[2]; Heparin (100 m/ml) and heparinase, SBEC 1D (FIG. 2B)
  inhibition of ring-stage cytoadhesion: about 50%

## Thrombospondin: mature-stage IE adhesion receptor protein tested at 2.5 μg/ml
[2]
  inhibitory effect on ring-stage IE binding to SBEC 1D: no effect

## chondroitinase ABC [Case]
[2]
  sensitivity of ring-stage IE^CSA cytoadhesion to inhibitor: insensitive
  time after invasion at which inhibition was maximal: 24 h
  inhibitory effect on ring-stage IE binding to SBEC 1D: no significant inhibitory activity

## dermatan-sulphate [CSB]
[2]
  inhibitory effect on ring-stage IE binding to SBEC 1D: not specific

## chondroitin-sulphate A [CSA]
[2]
  sensitivity of ring-stage IE^CSA cytoadhesion to inhibitor: insensitive
  time after invasion at which inhibition was maximal: 24 h

B1: trypsin: protease used to treat ring-stage IE (protein, UniProt P00760 24-246, looked up)
Serine protease 1: IVGGYTCGANTVPYQVSLNSGYHFCGGSLINSQWVVSAAHCYKSGIQVRLGEDNINVVEGNEQFISASKSIVHPSYNSNTLNNDIMLIKLKSAASLNSRVASISLPTSCASAGTQCLISGWGNTKSSGTSYPDVLKCLKAPILSDSSCKSAYPGQITSNMFCAGYLEGGKDSCQGDSGGPVVCSGKLQGIVSWGSGCAQKNKPGVYTKVCNYVSWIKQTIASN
modifications: TPCK-treated
notes: protease used to treat ring-stage IE
[1]
  inhibition of ring-stage IE adhesion after protease treatment of IE: substantially inhibited
